Experiments:
Assay in all cases: drug activity profiling cytotoxicity
Type in all cases: cell-based
639-V = conditions: Homo sapiens; 639-V cell line, Bladder; read-out: Aza-T-dCyd IC50
Procedure: (§1) To obtain a biomarker for Aza-T-dCyd, drug activity profiling analysis was performed to evaluate the cytotoxicity of 200 cell lines.
(§2) The drug responsiveness analysis of Aza-T-dCyd through drug activity profiling and genomic analysis of 200 cell lines confirmed the potent efficacy of Aza-T-dCyd in various solid tumors (Table 2).

769-P = conditions: Homo sapiens; 769-P cell line, Kidney; read-out: Aza-T-dCyd IC50
Procedure: as §1, §2

A-253 = conditions: Homo sapiens, A253; A-253 cell line, Head and Neck; read-out: Aza-T-dCyd IC50
Procedure: as §1, §2

CAMA-1 = conditions: Homo sapiens; CAMA-1 cell line, Breast; read-out: Aza-T-dCyd IC50
Procedure: as §1, §2

CCRFCEM = conditions: Homo sapiens, CCRF-CEM; CCRFCEM cell line, ALL; read-out: Aza-T-dCyd IC50
Procedure: as §1, §2

Colo 320DM = conditions: Homo sapiens; Colo 320DM cell line, Colon; read-out: Aza-T-dCyd IC50
Procedure: as §1, §2

DB = conditions: Homo sapiens; DB cell line, B-cell lymphoma; read-out: Aza-T-dCyd IC50
Procedure: as §1, §2

Detroit 562 = conditions: Homo sapiens; Detroit 562 cell line, Head and Neck; read-out: Aza-T-dCyd IC50
Procedure: as §1, §2

EFM-19 = conditions: Homo sapiens; EFM-19 cell line, Breast; read-out: Aza-T-dCyd IC50
Procedure: as §1, §2

HL-60 = conditions: Homo sapiens; HL-60 cell line, AML; read-out: Aza-T-dCyd IC50
Procedure: as §1, §2

HPAF-II = conditions: Homo sapiens; HPAF-II cell line, Pancreas; read-out: Aza-T-dCyd IC50
Procedure: as §1, §2

HT-1080 = conditions: Homo sapiens; HT-1080 cell line, Sarcoma; read-out: Aza-T-dCyd IC50
Procedure: as §1, §2

HT-29 = conditions: Homo sapiens; HT-29 cell line, Colon; read-out: Aza-T-dCyd IC50
Procedure: as §1, §2

HeLa = conditions: Homo sapiens; HeLa cell line, Female GU (Cervix); read-out: Aza-T-dCyd IC50
Procedure: as §1, §2

Hs 688(A).T = Hs 688(A).T cell line, Skin (Melanoma); read-out: Aza-T-dCyd IC50
Procedure: as §1, §2

Hs 729 = Hs 729 cell line, Sarcoma; read-out: Aza-T-dCyd IC50
Procedure: as §1, §2

Hs 766T = conditions: Hs766T; Hs 766T cell line, Pancreas; read-out: Aza-T-dCyd IC50
Procedure: as §1, §2

HuP-T4 = conditions: Homo sapiens; HuP-T4 cell line, Pancreas; read-out: Aza-T-dCyd IC50
Procedure: as §1, §2

MDA MB 468 = conditions: Homo sapiens; MDA MB 468 cell line, Breast; read-out: Aza-T-dCyd IC50
Procedure: as §1, §2

Mia PaCa-2 = conditions: Homo sapiens; Mia PaCa-2 cell line, Pancreas; read-out: Aza-T-dCyd IC50
Procedure: as §1, §2

NAMALWA = NAMALWA cell line, Burkitt's lymphoma; read-out: Aza-T-dCyd IC50
Procedure: as §1, §2

NCI-H508 = conditions: Homo sapiens; NCI-H508 cell line, Colon; read-out: Aza-T-dCyd IC50
Procedure: as §1, §2

PSN-1 = conditions: Homo sapiens, PSN1; PSN-1 cell line, Pancreas; read-out: Aza-T-dCyd IC50
Procedure: as §1, §2

SCC-25 = conditions: Homo sapiens; SCC-25 cell line, Head and Neck; read-out: Aza-T-dCyd IC50
Procedure: as §1, §2

SCC-9 = conditions: Homo sapiens; SCC-9 cell line, Head and Neck; read-out: Aza-T-dCyd IC50
Procedure: as §1, §2

SKOV3 = conditions: Homo sapiens, SK-OV-3; SKOV3 cell line, Female GU (Ovary); read-out: Aza-T-dCyd IC50
Procedure: as §1, §2

SU-DHL-8 = conditions: Homo sapiens; SU-DHL-8 cell line, B-cell lymphoma; read-out: Aza-T-dCyd IC50
Procedure: as §1, §2

SW1463 = conditions: Homo sapiens; SW1463 cell line, Colon; read-out: Aza-T-dCyd IC50
Procedure: as §1, §2

Thp1 = conditions: Homo sapiens, THP-1; Thp1 cell line, AML; read-out: Aza-T-dCyd IC50
Procedure: as §1, §2

VA-ES-BJ = VA-ES-BJ cell line, Sarcoma; read-out: Aza-T-dCyd IC50
Procedure: as §1, §2

WiDr = conditions: Homo sapiens; WiDr cell line, Colon; read-out: Aza-T-dCyd IC50
Procedure: as §1, §2

In the case of `Nc1ncn([C@H]2CC(O)[C@@H](CO)S2)c(=O)n1` (stereo partly shown) [Aza-T-dCyd, 4′-thio-5-aza-2′-deoxycytidine], the IC50 (639-V) is reported as 1.57 µM, the IC50 (769-P) is reported as 0.0657 µM and the IC50 (A-253) is reported as 0.601 µM. For the same molecule, the IC50 (CAMA-1) was greater than 10 µM, the IC50 (CCRFCEM) was 0.119 µM and the IC50 (Colo 320DM) was 0.0923 µM. For the same molecule, the IC50 (DB) was 0.135 µM, the IC50 (Detroit 562) was 0.0811 µM and the IC50 (EFM-19) was 3.95 µM. For the same molecule, the IC50 (HL-60) was 0.514 µM, the IC50 (HPAF-II) was 0.737 µM and the IC50 (HT-1080) was 0.12 µM. It also gave an IC50 (HT-29) of 0.323 µM, an IC50 (HeLa) of 1.81 µM and an IC50 (Hs 688(A).T) greater than 10 µM. For the same molecule, the IC50 (Hs 729) was greater than 10 µM, the IC50 (Hs 766T) was 9.4 µM and the IC50 (HuP-T4) was 0.321 µM. It also gave an IC50 (MDA MB 468) of 1.34 µM, an IC50 (Mia PaCa-2) of 0.881 µM and an IC50 (NAMALWA) of 0.0109 µM. For the same molecule, the IC50 (NCI-H508) was 0.542 µM, the IC50 (PSN-1) was 0.191 µM and the IC50 (SCC-25) was 0.126 µM. For the same molecule, the IC50 (SCC-9) was 1.83 µM, the IC50 (SKOV3) was 2.92 µM and the IC50 (SU-DHL-8) was 0.0706 µM. For the same molecule, the IC50 (SW1463) was 0.303 µM, the IC50 (Thp1) was 5.12 µM and the IC50 (VA-ES-BJ) was 0.241 µM. For the same molecule, the IC50 (WiDr) was 0.263 µM.
